Legend:
MACO mice = test: thrombolysis time and cerebral blood flow after MCAO; type: in vivo
[1] = as above; type: in vivo, mice; details: thrombus not completely dissolved
[2] = test system: neural precursor cells (NPCs); test: Ki-67 immunohistochemistry of brain sections (NPC proliferation, SVZ and HDG); type: in vivo, mice; details: SVZ and HDG areas, versus saline control
Source text: FIGS. 9A to 9D show representative images of Ki-67 staining after MTDS with MN treatment in comparison with saline control, free rt-PA, MTDS in SVZ area (FIG. 9A) and HDG area (FIG. 9B). (Scale bar=50 μm). Quantitative data of NPCs by immunohistochemistry staining in SVZ area (FIG. 9C) (Ki-67^+ cells) and HDG area (FIG. 9D) (Ki-67^+ cells).
The subventricular zone (SVZ) and hippocampal dentate gyrus (DG) are known to trigger the activation of resting neural precursor cells (NPCs) when the brain suffers from ischemic injury. NPCs mainly reside in the SVZ, while the DG has the ability to differentiate into a range of neurons and glial cells.

[3] = drug release behavior study (rtPA release); type: physicochemical; details: in the first hour
Method: To measure the loading of rtPA (rtPA-FANC=(MTDS)) in FANC, analysis using […] protein analysis (BCA) was performed. The encapsulation efficiency (EE) of rtPA in FANC is 73.94% and the loading capacity (LC) is 22.49%. To observe the rtPA release rate of FANC, further drug release behavior studies were conducted. […] This slower release behavior can effectively protect rtPA from metabolic effects and reduce the damage caused in the blood circulation system.

recombinant tissue-type plasminogen activator [rtPA]
thrombolytic activity (MACO mice; FIG. 8a, right MCA images): able to dissolve the thrombus
time to partial thrombolysis (MACO mice; rtPA 10 mg kg^−1): approximately 80 minutes
blood flow restored (CBF) (MACO mice; within 120 minutes, rtPA 10 mg kg^−1): approximately 80%
CBF recovery, maximum [1]: ≤ 90%
number of Ki-67^+ cells [2]: no significant difference
rtPA release [3]: more than 60%
